# From patent US20230091225A1, “Bifunctional chimeric heterocyclic compounds for targeted degradation of androgen receptors and use thereof” (HINOVA PHARMACEUTICALS INC., priority 2019, published 2023)
# Target: T1, androgen receptor (AR) (Homo sapiens, UniProt P10275)
# T1 sequence (P10275 1-920): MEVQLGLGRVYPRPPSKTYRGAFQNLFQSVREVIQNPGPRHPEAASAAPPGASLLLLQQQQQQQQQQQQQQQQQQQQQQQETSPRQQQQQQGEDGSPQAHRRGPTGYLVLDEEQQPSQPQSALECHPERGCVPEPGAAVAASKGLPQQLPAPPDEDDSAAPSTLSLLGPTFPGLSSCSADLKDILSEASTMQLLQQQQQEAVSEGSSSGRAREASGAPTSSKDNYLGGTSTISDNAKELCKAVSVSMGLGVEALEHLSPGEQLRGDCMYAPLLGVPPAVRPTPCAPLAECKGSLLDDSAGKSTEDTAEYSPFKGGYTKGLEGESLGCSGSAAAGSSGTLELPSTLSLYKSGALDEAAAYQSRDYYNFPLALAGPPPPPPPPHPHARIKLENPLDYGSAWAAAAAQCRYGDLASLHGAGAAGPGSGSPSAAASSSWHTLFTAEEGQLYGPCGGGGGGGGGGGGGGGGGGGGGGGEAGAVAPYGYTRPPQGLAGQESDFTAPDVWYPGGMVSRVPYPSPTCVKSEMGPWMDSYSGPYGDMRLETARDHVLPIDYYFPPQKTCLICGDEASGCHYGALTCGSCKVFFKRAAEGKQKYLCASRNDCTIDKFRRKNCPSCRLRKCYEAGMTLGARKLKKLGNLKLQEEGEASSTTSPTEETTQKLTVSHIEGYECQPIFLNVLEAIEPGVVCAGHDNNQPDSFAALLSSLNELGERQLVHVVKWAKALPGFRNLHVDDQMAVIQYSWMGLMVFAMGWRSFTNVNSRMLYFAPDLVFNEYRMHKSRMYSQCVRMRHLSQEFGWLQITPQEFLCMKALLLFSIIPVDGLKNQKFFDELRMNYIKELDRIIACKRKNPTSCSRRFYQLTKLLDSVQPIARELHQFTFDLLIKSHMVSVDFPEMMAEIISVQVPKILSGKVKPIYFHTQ
# Assay: Degradation of androgen receptor (AR) protein in VCaP cells by Western blot
# Format: cell-based
# Conditions: percentage of degraded AR at 100 nM, VCaP cells, 16 h
# Description: Determination of the Degradation Activity of the Compound on Androgen Receptor (AR) Protein by Western Blot
# 1) VCaP cells were subcultured in cell culture media, and then the cells in good growth condition were seeded in a 12-well plate at 1 ml/well (5×10^5 cells/well), and cultured overnight in a 37° C., 5% CO2 cell incubator. 2) The test compound was prepared into a 10 mM stock solution with dimethyl sulfoxide (DMSO). Prior to use, the solution was diluted 3 times with DMSO. […] of the diluted compound solution was added to the cell culture well (ensuring that the DMSO concentration in the culture system was 0.1%), and two wells were set for each concentration. The plate was gently shaken to mix. In addition, the experiment included negative control wells (containing equal amount of DMSO) and positive control wells. 3) After culturing 16 h. the cells were lysed with RIPA cell lysate, and the protein was extracted. The protein concentration was measured with BCA kit. 5-fold concentrated protein loading buffer was added, and after heated at 100° C. for 5 min. the sample was stored at −20° C. 4) for each well, 30 μg of protein was loaded on polyacrylamide gel for electrophoresis. 5) The protein was transferred from polyacrylamide gel to PVDF membrane, and then 5% skim milk was added to close for 1 h at room temperature. The first antibody (Androgen Receptor (D6F11) XP Rabbit mAb and Anti-β-Actin Rabbit mAb) was added and incubated overnight at 4° C. The membrane was washed with TBST solution three times. 10 min for each time. The secondary antibody (horseradish peroxidase labeled goat […]) was added and incubated at room temperature for 2 h, and then the membrane was washed with TBST solution three times. 10 min for each time.
# Finally, ECL chemiluminescence solution was added, and then photos were taken with automatic chemiluminescence instrument to collect pictures for analysis.
inhibition at 0.1 µM [%],% degradation,SMILES
< 25,,N#Cc1ccc(O[C@H]2CC[C@H](NC(=O)c3ccc(N4CC5CN(CC6CN(c7cc8c(cc7F)C(=O)N(C7CCC(=O)NC7=O)C8=O)C6)CC5C4)nn3)CC2)cc1Cl (stereo partly shown) [Compound 160]
50 to 79,,"CC1(C)[C@H](NC(=O)c2ccc(N3CC4CN(CC5CN(c6cc7c(cc6F)C(=O)N(C6CCC(=O)NC6=O)C7=O)C5)CC4C3)nn2)C(C)(C)[C@H]1Oc1ccc(C#N)c(Cl)c1 (stereo partly shown) [Compound 161, N-((1r,3r)-3-(3-chloro-4-cyanophenoxy)-2,2,4,4-tetramethylcyclobutyl)-6-(5-((1-(2-(2,6-dioxopiperidin-3-yl)-6-fluoro-1,3-dioxoisoindolin-5-yl)azelaic acid-3-yl)methyl)hexahydropyrrolo[3,4-c]pyrrol-2(1H)-pyrazole)formamide]"
> 80,,"N#Cc1ccc(O[C@H]2CC[C@H](NC(=O)c3ccc(N4CCC5(CCN(CC6CCN(c7cc8c(cc7F)C(=O)N(C7CCC(=O)NC7=O)C8=O)CC6)C5)C4)nn3)CC2)cc1Cl (stereo partly shown) [Compound 162, N-((1r,4r)-4-(3-chloro-4-cyanophenoxy)cyclohexyl)-6-(7-((1-(2-(2,6-dioxopiperidin-3-yl)-6-fluoro-1,3-dioxoisoindolin-5-yl)piperidine-4-yl)methyl)-2,7-diazaspiro[4.4]nonan-2-yl)pyridazine-3-formamide]"
> 80,,N#Cc1ccc(O[C@H]2CC[C@H](NC(=O)c3cnc(N4CCC5(CCN(CC6CCN(c7cc8c(cc7F)C(=O)N(C7CCC(=O)NC7=O)C8=O)CC6)C5)C4)cn3)CC2)cc1Cl (stereo partly shown) [Compound 163]
50 to 79,,"N#Cc1ccc(O[C@H]2CC[C@H](NC(=O)c3cnc(N4CCC5(CCN(C6CCN(c7cc8c(cc7F)C(=O)N(C7CCC(=O)NC7=O)C8=O)CC6)C5)C4)cn3)CC2)cc1Cl (stereo partly shown) [Compound 167, N-((1r,4r)-4-(3-chloro-4-cyanophenoxy)cyclohexyl)-5-(7-(1-(2-(2,6-dioxopiperidin-3-yl)-6-fluoro-1,3-dioxoisoindolin-5-yl)piperidine-4-yl)-2,7-diazaspiro[4.4]nonan-2-yl)pyrazine-2-carboxamide]"
< 25,,N#Cc1ccc(O[C@H]2CC[C@H](N3Cc4nc(NC5CCN(CC6CCN(c7ccc8c(c7)C(=O)N(C7CCC(=O)NC7=O)C8=O)CC6)CC5)ccc4C3=O)CC2)cc1Cl (stereo partly shown) [Compound 172]
< 25,,N#Cc1ccc(O[C@H]2CC[C@H](N3Cc4nc(N5CCC(CN6CCC(Nc7ccc8c(c7)C(=O)N(C7CCC(=O)NC7=O)C8=O)CC6)CC5)ccc4C3=O)CC2)cc1Cl (stereo partly shown) [Compound 173]
< 25,,"N#Cc1ccc(OC2C[C@@H]3CN(C(=O)c4cnc(N5CCC(CN6CCN(c7ccc8c(c7)C(=O)N(C7CCC(=O)NC7=O)C8=O)CC6)CC5)cn4)C[C@@H]3C2)cc1Cl (stereo partly drawn) [Compound 174, 2-chloro-4-(((3aR,5r,6aS)-2-(5-(4-((4-(2-(2,6-dioxopiperidin-3-yl)-1,3-dioxoisoindolin-5-yl)piperazin-1-yl)methyl)piperidin-1-yl)pyrazine-2-carbonyl)octahydrocyclopenta[c]pyrrol-5-yl)oxy)benzonitrile]"
< 25,,"N#Cc1ccc(O[C@H]2C[C@@H]3CN(C(=O)c4ccc(N5CCC(CN6CCN(c7ccc8c(c7)C(=O)N(C7CCC(=O)NC7=O)C8=O)CC6)CC5)nn4)C[C@@H]3C2)cc1Cl (stereo partly drawn) [Compound 175, 2-chloro-4-(((3aR,5s,6aS)-2-(6-(4-((4-(2-(2,6-dioxopiperidin-3-yl)-1,3-dioxoisoindolin-5-yl)piperazin-1-yl)methyl)piperidin-1-yl)pyridazine-3-carbonyl)octahydrocyclopenta[c]pyrrol-5-yl)oxy)benzonitrile]"
50 to 79,,"N#Cc1ccc(O[C@H]2CC[C@H](NC(=O)c3cnc(N4C[C@@H]5[C@@H](CN6CCN(c7cc8c(cc7F)C(=O)N(C7CCC(=O)NC7=O)C8=O)CC6)[C@@H]5C4)cn3)CC2)cc1Cl (stereo partly drawn) [Compound 176, N-((1r,4R)-4-(3-chloro-4-cyanophenoxy)cyclohexyl)-5-((1R,5S,6S)-6-((4-(2-(2,6-dioxopiperidin-3-yl)-6-fluoro-1,3-dioxoisoindolin-5-yl)piperazin-1-yl)methyl)-3-azabicyclo[3.1.0]hexan-3-yl)pyrazine-2-carboxamide]"
50 to 79,,"N#Cc1ccc(O[C@H]2CC[C@H](NC(=O)c3cnc(N4C[C@@H]5[C@@H](CN6CCN(c7ccc8c(c7)C(=O)N(C7CCC(=O)NC7=O)C8=O)CC6)[C@@H]5C4)cn3)CC2)cc1Cl (stereo partly drawn) [Compound 177, N-((1r,4R)-4-(3-chloro-4-cyanophenoxy)cyclohexyl)-5-((1R,5S,6S)-6-((4-(2-(2,6-dioxopiperidin-3-yl)-1,3-dioxoisoindolin-5-yl)piperazin-1-yl)methyl)-3-azabicyclo[3.1.0]hexan-3-yl)pyrazine-2-carboxamide]"
,B (79%-50%),"N#Cc1ccc(OC2CCC(NC(=O)c3ccc(N4C[C@@H]5C(CN6CCN(c7cc8c(cc7F)C(=O)N(C7CCC(=O)NC7=O)C8=O)CC6)[C@@H]5C4)nn3)CC2)cc1Cl (stereo partly drawn) [Compound 178, N-((1r,4R)-4-(3-chloro-4-cyanophenoxy)cyclohexyl)-6-((1R,5S,6S)-6-((4-(2-(2,6-dioxopiperidin-3-yl)-6-fluoro-1,3-dioxoisoindolin-5-yl)piperazin-1-yl)methyl)-3-azabicyclo[3.1.0]hexan-3-yl)pyridazine-3-formamide]"
25 to 49,,"N#Cc1ccc(O[C@H]2CC[C@H](NC(=O)c3ccc(N4C[C@@H]5[C@@H](CN6CCN(c7ccc8c(c7)C(=O)N(C7CCC(=O)NC7=O)C8=O)CC6)[C@@H]5C4)nn3)CC2)cc1Cl (stereo partly drawn) [Compound 179, N-((1r,4R)-4-(3-chloro-4-cyanophenoxy)cyclohexyl)-6-((1R,5S,6S)-6-((4-(2-(2,6-dioxopiperidin-3-yl)-1,3-dioxoisoindolin-5-yl)piperazin-1-yl)methyl)-3-azabicyclo[3.1.0]hexan-3-yl)pyridazine-3-formamide]"
> 80,,"N#Cc1ccc(O[C@H]2CC[C@H](NC(=O)c3ccc(N4CCC(CN5CC6(CCN(c7cc8c(cc7F)C(=O)N(C7CCC(=O)NC7=O)C8=O)C6)C5)CC4)nn3)CC2)cc1Cl (stereo partly shown) [Compound 180, N-((1r,4r)-4-(3-chloro-4-cyanophenoxy)cyclohexyl)-6-(4-((6-(2-(2,6-dioxopiperidin-3-yl)-6-fluoro-1,3-dioxoisoindolin-5-yl)-2,6-diazaspiro[3.4]octan-2-yl)methyl)piperidin-1-yl)pyridazine-3-formamide]"

SMILES,inhibition at 0.1 µM [%],% degradation
"N#Cc1ccc(O[C@H]2CC[C@H](NC(=O)c3ccc(N4CCC(N5CCC6(CCN(c7cc8c(cc7F)C(=O)N(C7CCC(=O)NC7=O)C8=O)C6)C5)CC4)nn3)CC2)cc1Cl (stereo partly shown) [Compound 164, N-((1r,4r)-4-(3-chloro-4-cyanophenoxy)cyclohexyl)-6-(4-(7-(2-(2,6-dioxopiperidin-3-yl)-6-fluoro-1,3-dioxoisoindol-5-yl)-2,7-diazaspiro[4.4]nonan-2-yl)piperidin-1-yl)pyridazine-3-formamide]",> 80,
"N#Cc1ccc(O[C@H]2CC[C@H](NC(=O)c3cnc(N4CCC(N5CCC6(CCN(c7cc8c(cc7F)C(=O)N(C7CCC(=O)NC7=O)C8=O)C6)C5)CC4)cn3)CC2)cc1Cl (stereo partly shown) [Compound 165, N-((1r,4r)-4-(3-chloro-4-cyanophenoxy)cyclohexyl)-5-(4-(7-(2-(2,6-dioxopiperidin-3-yl)-6-fluoro-1,3-dioxoisoindolin-5-yl)-2,7-diazaspiro[4.4]nonan-2-yl)piperidin-1-yl)pyrazine-2-carboxamide]",> 80,
